Assay results reported in patent publication US20060281755A1, “SYNERGISTIC MODULATION OF FLT3 KINASE USING AMINOPYRIMIDINES KINASE MODULATORS” (priority 2005, published 2006).
Where two headings read alike, the source gives them in different places.

How the values were obtained:
Baf3-FLT3 cells = assay: 72-hour cell proliferation assay and combination index analysis, Baf3-FLT3; type: cell-based, murine; conditions: with single sub-IC50 dose of FLT3 inhibitor Compound A (100 nM)
Description: Dose responses for the individual compounds alone were determined for each cell line using a standard 72-hour cell proliferation assay (see FIGS. 6.1-6.8). […] Each of these chemically distinct compounds alone has potential for the treatment of disorders related to FLT3, such as FLT3 positive AML. […] The FLT3 inhibitors tested had no effect on THP-1 proliferation. […] (See FIGS. 10.1-10.8 and Tables 1-3, hereafter.)
To statistically evaluate the synergy of a FLT3 inhibitor and an FTI in FLT3 dependent cell lines, dosing combinations were evaluated by the method of Chou and Talalay. See Chou T C, Talalay P. (1984) “Quantitative analysis of dose-effect relationships: the combined effects of multiple drugs or enzyme inhibitors.” Adv Enzyme Regul. 22:27-55. Using this method inhibitors are added simultaneously to cells in a ratio of the IC50 dose of each compound alone. […] Using this method, multiple FTI and FLT3 combinations were evaluated. […]
Combination Index Analysis. To determine growth inhibition synergy of a FTI and FLT3 inhibitor combination based on the method of Chou and Talalay (Chou and Talalay. See Chou T C, Talalay P. (1984) “Quantitative analysis of dose-effect relationships: the combined effects of multiple drugs or enzyme inhibitors.” Adv Enzyme Regul. 22:27-55.), fixed ratio combination dosing with isobolar statistical analysis was performed. […]

MV4-11 cells = assay: Annexin V staining (apoptosis) in MV4-11 cells; type: cell-based, human; conditions: combination (fixed ratio 4:1) versus agent alone, 48 hours
Description: The ultimate goal of treatment for FLT3 related disorders is to kill the disease causative cells and to cause regression of disease. […] Annexin V binding to phosphotidyl serine that has translocated from the inner leaflet of the plasma membrane to the outer leaflet of the plasma membrane and is a well established way to measure apoptosis of cells. See van Engeland M., L. J. Nieland, et al. (1998) “Annexin V-affinity assay: a review on an apoptosis detection system based on phosphatidylserine exposure.” Cytometry. 31(1):1-9.
After the compound incubations, treated cells were harvested and stained with Annexin V-PE and 7-AAD using the Guava Nexin apoptosis kit according to the protocol in the Biological Activity Measurements section hereafter. Annexin V staining peaks at 60% because cells late in apoptosis begin to fall apart and are considered debris. […] Statistical analysis using the above described method of Chou and Talalay was also performed to determine the synergy of the combination. […] The magnitude of the synergistic induction of apoptosis of MV4-11 cells by the combination of an FTI and a FLT3 inhibitor could not be predicted by those skilled in the art. […]
Annexin V Staining. […] All annexin positive cells were considered apoptotic and percent Annexin positive cells was calculated.

[1] = either agent alone or in combination
Description: Mice were dosed orally by gavage with vehicle (control group) or compound at various doses twice-daily (b.i.d.) during the week and once-daily (q.d.) on weekends. Dosing was continued for 11 consecutive days, depending on the kinetics of tumor growth and size of tumors in vehicle-treated control mice. If tumors in the control mice reached 10% of body weight (˜2.0 grams), the study was to be terminated. […] During the study, tumor growth was measured three times-a-week (M, W, F) using electronic Vernier calipers. Tumor volume (mm^3) was calculated using the formula […], where L=length (mm) and W=width (shortest distance in mm) of the tumor. […] Mice were closely examined daily at each dose for overt clinical signs of adverse, drug-related side effects. […]
If tumors in the control mice reached ˜10% of body weight (˜2.0 grams), the study was to be terminated. […] During the study, tumor growth was measured three times-a-week (M, W, F) using electronic Vernier calipers. […] Body weight was measured three times-a-week and a loss of body weight >10% was used as an indication of lack of compound tolerability. […]
Dosing was continued for sixteen consecutive days. Tumor growth was measured three times-a-week (Monday, Wednesday, Friday) using electronic Vernier calipers. Body weight was measured three times-a-week and a loss of body weight >10% was used as an indication of lack of compound tolerability.

With `Cn1cncc1C(N)(c1ccc(Cl)cc1)c1ccc2c(c1)c(-c1cccc(Cl)c1)cc(=O)n2C` (single isomer, unassigned; (+)) [Tipifarnib, (+)-6-[amino(4-chlorophenyl)(1-methyl-1H-imidazol-5-yl)methyl]-4-(3-chlorophenyl)-1-methyl-2(1H)-quinolinone] the “increase in potency of Tipifarnib” value (Baf3-FLT3 cells) was “more than 3 fold”, the “shift of EC50 for the induction of annexin V staining” value (MV4-11 cells) was “more than eight-fold” and the overt toxicity ([1]; 9-day treatment) was “No overt toxicity”. The overt toxicity ([1]; 16-day treatment) was “No overt toxicity”.
